Results published in ChEMBL document CHEMBL1201862, “PubChem BioAssay data set” (2004).
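All cell lines were grown in 96-well plates and treated with compound for 48 hours. The concentration for 50% growth inhibition is given as GI50.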 The source made the active and inactive calls. No stated cut-off is given here; in the data, active = GI50 up to about 1.1 µM and inactive = higher.

Experiments:
Assay in all cases: NCI-60 cell line screen, 48 h
LOX IMVI = tested on: LOX IMVI
SF-539 = tested on: SF-539
HT-29 = tested on: HT-29
BT-549 = tested on: BT-549
NCI-H460 = tested on: NCI-H460
SK-MEL-28 = tested on: SK-MEL-28
SNB-75 = tested on: SNB-75
Hs-578T = tested on: Hs-578T
Malme-3M = tested on: Malme-3M
HCT-15 = tested on: HCT-15
OVCAR-8 = tested on: OVCAR-8
MDA-MB-435 = tested on: MDA-MB-435
TK-10 = tested on: TK-10
UACC-257 = tested on: UACC-257
A498 = tested on: A498
K562 = tested on: K562
NCI/ADR-RES = tested on: NCI/ADR-RES
SF-268 = tested on: SF-268
SK-MEL-5 = tested on: SK-MEL-5
SN12C = tested on: SN12C
DU-145 = tested on: DU-145
CCRF-CEM = tested on: CCRF-CEM
OVCAR-5 = tested on: OVCAR-5
NCI-H226 = tested on: NCI-H226
HCT-116 = tested on: HCT-116
HOP-92 = tested on: HOP-92
NCI-H23 = tested on: NCI-H23
IGROV-1 = tested on: IGROV-1
EKVX = tested on: EKVX
SK-OV-3 = tested on: SK-OV-3
SNB-19 = tested on: SNB-19
HL-60 = tested on: HL-60
U-251 = tested on: U-251
COLO 205 = tested on: COLO 205
CAKI-1 = tested on: CAKI-1
SF-295 = tested on: SF-295
HOP-62 = tested on: HOP-62
PC-3 = tested on: PC-3
UACC-62 = tested on: UACC-62
NCI-H522 = tested on: NCI-H522
MCF7 = tested on: MCF7
786-0 = tested on: 786-0
MDA-N = tested on: MDA-N
HCC 2998 = tested on: HCC 2998
M14 = tested on: M14
OVCAR-3 = tested on: OVCAR-3
SK-MEL-2 = tested on: SK-MEL-2
RXF 393 = tested on: RXF 393
MDA-MB-231 = tested on: MDA-MB-231
ACHN = tested on: ACHN
OVCAR-4 = tested on: OVCAR-4
A549 = tested on: A549
SW-620 = tested on: SW-620
UO-31 = tested on: UO-31
SR = tested on: SR
MOLT-4 = tested on: MOLT-4
RPMI-8226 = tested on: RPMI-8226
KM12 = tested on: KM12

SMILES: Cc1c2c(n3c(nc4ccccc43)c1C#N)N(c1ccc(Cl)cc1)CC2
- GI50 (LOX IMVI): > 100 µM (inactive)
- GI50 (SF-539): > 100 µM (inactive)
- GI50 (HT-29): > 100 µM (inactive)
- GI50 (BT-549): > 100 µM (inactive)
- GI50 (NCI-H460): > 100 µM (inactive)
- GI50 (SK-MEL-28): > 100 µM (inactive)
- GI50 (SNB-75): > 100 µM (inactive)
- GI50 (Hs-578T): > 100 µM (inactive)
- GI50 (Malme-3M): > 100 µM (inactive)
- GI50 (HCT-15): > 100 µM
- GI50 (OVCAR-8): > 100 µM (inactive)
- GI50 (MDA-MB-435): > 100 µM (inactive)
- GI50 (TK-10): > 100 µM (inactive)
- GI50 (UACC-257): > 100 µM (inactive)
- GI50 (A498): > 100 µM (inactive)
- GI50 (K562): > 100 µM (inactive)
- GI50 (NCI/ADR-RES): > 100 µM (inactive)
- GI50 (SF-268): > 100 µM (inactive)
- GI50 (SK-MEL-5): > 100 µM (inactive)
- GI50 (SN12C): > 100 µM (inactive)
- GI50 (DU-145): > 100 µM (inactive)
- GI50 (CCRF-CEM): > 100 µM (inactive)
- GI50 (OVCAR-5): > 100 µM (inactive)
- GI50 (NCI-H226): > 100 µM (inactive)
- GI50 (HCT-116): > 100 µM (inactive)
- GI50 (HOP-92): > 100 µM (inactive)
- GI50 (NCI-H23): > 100 µM (inactive)
- GI50 (IGROV-1): > 100 µM (inactive)
- GI50 (EKVX): > 100 µM (inactive)
- GI50 (SK-OV-3): 96.4 µM (inactive)
- GI50 (SNB-19): > 100 µM (inactive)
- GI50 (HL-60): > 100 µM (inactive)
- GI50 (U-251): > 100 µM (inactive)
- GI50 (COLO 205): > 100 µM (inactive)
- GI50 (CAKI-1): > 100 µM (inactive)
- GI50 (SF-295): > 100 µM (inactive)
- GI50 (HOP-62): > 100 µM (inactive)
- GI50 (PC-3): > 100 µM (inactive)
- GI50 (UACC-62): > 100 µM (inactive)
- GI50 (NCI-H522): > 100 µM (inactive)
- GI50 (MCF7): > 100 µM (inactive)
- GI50 (786-0): > 100 µM (inactive)
- GI50 (MDA-N): > 100 µM (inactive)
- GI50 (HCC 2998): > 100 µM (inactive)
- GI50 (M14): > 100 µM (inactive)
- GI50 (OVCAR-3): > 100 µM (inactive)
- GI50 (SK-MEL-2): > 100 µM (inactive)
- GI50 (RXF 393): > 100 µM (inactive)
- GI50 (MDA-MB-231): > 100 µM (inactive)
- GI50 (ACHN): > 100 µM (inactive)
- GI50 (OVCAR-4): > 100 µM (inactive)
- GI50 (A549): > 100 µM (inactive)
- GI50 (SW-620): > 100 µM (inactive)
- GI50 (UO-31): > 100 µM (inactive)

SMILES: O=C(c1ccccc1)n1c2ccc(Br)cc2c2nc3ccccc3nc21
- GI50 (LOX IMVI): > 100 µM (inactive)
- GI50 (SF-539): > 100 µM (inactive)
- GI50 (HT-29): > 100 µM (inactive)
- GI50 (BT-549): > 100 µM (inactive)
- GI50 (NCI-H460): 71 µM (inactive)
- GI50 (SK-MEL-28): > 100 µM (inactive)
- GI50 (SNB-75): 46.2 µM (inactive)
- GI50 (SR): > 100 µM (inactive)
- GI50 (Malme-3M): > 100 µM (inactive)
- GI50 (HCT-15): > 100 µM
- GI50 (MOLT-4): 46.9 µM (inactive)
- GI50 (OVCAR-8): > 100 µM (inactive)
- GI50 (MDA-MB-435): > 100 µM (inactive)
- GI50 (TK-10): > 100 µM (inactive)
- GI50 (UACC-257): > 100 µM (inactive)
- GI50 (K562): 72.8 µM (inactive)
- GI50 (NCI/ADR-RES): > 100 µM (inactive)
- GI50 (SF-268): > 100 µM (inactive)
- GI50 (SK-MEL-5): > 100 µM (inactive)
- GI50 (SN12C): > 100 µM (inactive)
- GI50 (DU-145): > 100 µM (inactive)
- GI50 (CCRF-CEM): 58.9 µM (inactive)
- GI50 (OVCAR-5): > 100 µM (inactive)
- GI50 (NCI-H226): > 100 µM (inactive)
- GI50 (HCT-116): > 100 µM (inactive)
- GI50 (RPMI-8226): 27.7 µM (inactive)
- GI50 (HOP-92): > 100 µM (inactive)
- GI50 (NCI-H23): > 100 µM (inactive)
- GI50 (IGROV-1): 67.6 µM (inactive)
- GI50 (EKVX): > 100 µM (inactive)
- GI50 (SNB-19): > 100 µM (inactive)
- GI50 (HL-60): > 100 µM (inactive)
- GI50 (U-251): 65 µM (inactive)
- GI50 (COLO 205): > 100 µM (inactive)
- GI50 (CAKI-1): > 100 µM (inactive)
- GI50 (SF-295): > 100 µM (inactive)
- GI50 (HOP-62): 15.9 µM (inactive)
- GI50 (PC-3): 43.2 µM (inactive)
- GI50 (UACC-62): > 100 µM (inactive)
- GI50 (NCI-H522): 43.7 µM (inactive)
- GI50 (MCF7): 43.8 µM (inactive)
- GI50 (786-0): 37.8 µM (inactive)
- GI50 (MDA-N): > 100 µM (inactive)
- GI50 (HCC 2998): > 100 µM (inactive)
- GI50 (M14): > 100 µM (inactive)
- GI50 (OVCAR-3): 34.9 µM (inactive)
- GI50 (SK-MEL-2): 95.3 µM (inactive)
- GI50 (KM12): > 100 µM (inactive)
- GI50 (RXF 393): > 100 µM (inactive)
- GI50 (MDA-MB-231): > 100 µM (inactive)
- GI50 (ACHN): 57.1 µM (inactive)
- GI50 (OVCAR-4): 48.6 µM (inactive)
- GI50 (SW-620): > 100 µM (inactive)
- GI50 (UO-31): 45.8 µM (inactive)
